Test results taken from PMC4286809, “Crystallographic and spectroscopic snapshots reveal a dehydrogenase in action” (Nature Communications, 2015).

Experiments:
[1] = molecular target: T1, 2-aminomuconate-6-semialdehyde dehydrogenase (AMSDH) (Pseudomonas fluorescens, UniProt Q83V33, R464A); assay: steady-state kinetics; substrate inhibition Ki (Km […]); format: biochemical
T1 construct: gene nbaE

[2] = molecular target: T2, 2-aminomuconate-6-semialdehyde dehydrogenase (AMSDH) (Pseudomonas fluorescens, UniProt Q83V33, E268A); assay: crystal structures of thiohemiacetal (4OU2) and thioacyl (4OUB) adducts; ESI mass spectrometry; absorption titration; format: binding
T2 construct: gene nbaE
T2 sequence (Q83V33 1-500 E268A): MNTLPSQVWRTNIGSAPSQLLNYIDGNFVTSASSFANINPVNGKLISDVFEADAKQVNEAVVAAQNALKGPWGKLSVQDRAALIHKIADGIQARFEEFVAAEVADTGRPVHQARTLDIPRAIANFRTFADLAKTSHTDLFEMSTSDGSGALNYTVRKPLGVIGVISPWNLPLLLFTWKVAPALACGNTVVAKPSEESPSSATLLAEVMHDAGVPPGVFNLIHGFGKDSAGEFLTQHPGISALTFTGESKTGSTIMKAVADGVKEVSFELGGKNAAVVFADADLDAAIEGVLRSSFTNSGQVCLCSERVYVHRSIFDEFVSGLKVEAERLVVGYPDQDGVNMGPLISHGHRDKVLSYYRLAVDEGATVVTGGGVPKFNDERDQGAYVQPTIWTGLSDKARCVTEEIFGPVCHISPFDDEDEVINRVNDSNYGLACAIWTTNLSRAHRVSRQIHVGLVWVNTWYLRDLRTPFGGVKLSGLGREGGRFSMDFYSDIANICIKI

[3] = molecular target: T3, 2-aminomuconate-6-semialdehyde dehydrogenase (AMSDH) (Pseudomonas fluorescens, UniProt Q83V33, R120A); assay: steady-state kinetics (Km, lower bound); format: biochemical
T3 construct: gene nbaE
T3 sequence (Q83V33 1-500 R120A): T2 sequence (Q83V33 1-500 E268A)

[4] = molecular target: T4, 2-aminomuconate-6-semialdehyde dehydrogenase (AMSDH) (Pseudomonas fluorescens, UniProt Q83V33); assay: crystal structure of co-crystallized binary complex ([…] Å); format: binding
T4 construct: gene nbaE
T4 sequence (Q83V33 1-500): T2 sequence (Q83V33 1-500 E268A)

purified protein = substrate: O=C/C=C/C=C(/O)C(=O)O; assay: purified protein; format: biochemical, Pseudomonas fluorescens; conditions: NAD+ active site; bifurcated hydrogen bonds with Arg120 and Arg464; C6 becomes covalently bound to Cys302 in the later thioacyl intermediate (4NPI)
[5] = molecular target: the molecule itself; assay: crystal structure; wild-type AMSDH, ligand-free, with NAD+, with NAD+ and 2-AMS or 2-HMS, and as thioacyl intermediate; space group P212121; four polypeptides per asymmetric unit

Which results are given for `O=C/C=C/C=C(/O)C(=O)O` [2-HMS, 2-hydroxymuconate-6-semialdehyde]?
Ki [1]: ~6 µM; crystal structures of thiohemiacetal (4OU2) and thioacyl (4OUB) adducts; ESI mas [2]: a continuous electron density between Cys302-SG and 2-HMS-C6 is observed; Km [3]: > 446 µM

With `NC(=O)c1ccc[n+]([C@@H]2O[C@H](COP(=O)([O-])OP(=O)(O)OC[C@H]3O[C@@H](n4cnc5c(N)ncnc54)[C@H](O)[C@@H]3O)[C@@H](O)[C@H]2O)c1` [NAD+, NAD^+] as the molecule, how does the “crystal structure of co-crystallized binary complex (2.00 Å)” value [4] read?
The value was “an NAD^+ molecule is present in an extended, anti-conformation in the amino-terminal, co-substrate-binding domain of each monomer”.

B1: 2-aminomuconate-6-semialdehyde dehydrogenase from Pseudomonas fluorescens, wild type (enzyme, UniProt Q83V33 1-500, looked up)
chain: T2 sequence (Q83V33 1-500 E268A)
notes: 2-aminomuconate-6-semialdehyde dehydrogenase (AMSDH), Pseudomonas fluorescens; also called AMSDH; wild-type AMSDH; source: E. coli overexpression system, purified
What does the source list for B1?
Km (purified protein): 10.4 ± 0.2 µM; stoichiometry N [5]: 4
